Patent US8372876B2, “Method for improving memory in mammals” (The University of Houston System, priority 2007, dated 2013)
Entries after “also recorded” stand apart in the source; their conditions may differ.

Experiments:
[1] = target: T1, MT2 than for MT1 subtypes of melatonin receptors (Homo sapiens, UniProt P49286); conditions: MT2 versus MT1 selectivity; cited from earlier work
T1 sequence (P49286 1-362): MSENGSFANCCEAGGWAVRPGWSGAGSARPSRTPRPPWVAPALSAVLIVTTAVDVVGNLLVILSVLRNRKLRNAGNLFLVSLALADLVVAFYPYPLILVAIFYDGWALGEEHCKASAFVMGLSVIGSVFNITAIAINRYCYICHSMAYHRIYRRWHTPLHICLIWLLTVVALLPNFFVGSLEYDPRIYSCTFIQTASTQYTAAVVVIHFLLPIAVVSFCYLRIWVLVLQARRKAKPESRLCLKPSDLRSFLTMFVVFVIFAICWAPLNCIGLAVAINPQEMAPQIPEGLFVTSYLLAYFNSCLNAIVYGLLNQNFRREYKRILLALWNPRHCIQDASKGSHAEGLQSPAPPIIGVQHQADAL

zebrafish embryos = conditions: cited from earlier work
Zebrafish (D. rerio) = assay: active-avoidance conditioning in a shuttle box: learning (trials to criteria) and 24 h retention score; assay type: in vivo
Description: Zebrafish (D. rerio) were bred, raised and maintained by the experimenter at the University of Houston Animals Facility. Adult zebrafish are maintained in 2-liter modular aquaria (Marine Biotech) with continuous water exchange at 26-28° C. under 14:10 hours light:dark cycle. Eggs and larvae are maintained in beakers with daily water changes, under the same light:dark cycle and similar temperatures. Larval fish are fed with filtered paramecium. All animals, juvenile (>15 days) and adults are fed three times a day with live brine shrimp or flake. The *AB strain was originally obtained from the University of Oregon. All protocols were approved by the University of Houston Institutional Animal Care Use Committee. Zebrafish are trained on an active-avoidance conditioning paradigm using a modified shuttle box. Zebrafish must cross a hurdle to avoid electric shocks (3V; unconditioned stimulus) administered via electrodes 10 seconds after the onset of the conditioned stimulus which was a dim red light. Dim red lights are placed at the extremity of each compartment of the shuttle box. The light signal was kept on during each cycle lasting for 20 seconds in one compartment; subsequently, the conditioned and unconditioned stimuli changed to the other side of the shuttle box. Zebrafish must learn to escape the dark compartment and maintain in the compartment having the light stimulus on for the remaining trial period. Animals that respond correctly to the light signals in eight out of ten consecutive trials during the training period are designated learners. Training was terminated once Zebrafish achieve the learning criteria (i.e. swimming the compartment where the stimulus light was on and remain there until the light was switched off). […] Animals are tested 24 hours later under identical conditions to test for retention of the learned task. To quantitatively evaluate the ability of each learner to recall the active avoidance conditioning paradigm, a retention score was calculated using the algorithm of Piront and Schmidt [formula] The number of trials required to reach the learning criteria during the test session was subtracted from number of trials required to reach the learning criteria in the training session, divided by the number of trials in the test plus training sessions. Retention scores range from 0 to 1.0. […] Melatonin Blocks Long-Term Memory Formation During the Subjective Day This melatonin effect was tested by taking animals originally under 14:10 hours light:dark cycles and exposing them to constant darkness for 4 days. On the 3rd day of constant darkness and one hour prior to training at CT7 (corresponds to 4 pm) animals were bathed in increasing concentrations of melatonin (1 μM, 10 μM, 50 μM and 100 μM). Animals were then trained at CT8 for active avoidance conditioning and tested 24 hours later on the 4th day of constant darkness at CT8 for long-term memory formation. […] To test whether melatonin blocks long-term memory formation via melatonin receptor mediated signaling pathway, the following experiments were performed. Animals in their original 14:10 hours light:dark cycles were set under free running conditions of constant darkness and temperature (25° C.) for 4 days. […] Treatments comprising of melatonin and either of its antagonists (luzindole or K-185) do improve the retention score, going from 0.1 with melatonin alone to about 0.4 in the presence of a mixture of melatonin and luzindole and to about 0.3 in the presence of a mixture of melatonin and K-185. […] This means that the inhibitory action of melatonin was mediated via a melatonin receptor-signaling pathway. […] This effect was tested by blocking night time melatonin receptor mediated signaling pathways with increased concentrations of melatonin receptor antagonist, such as luzindole. Animals in 14:10 hours light:dark cycles were exposed to constant darkness and temperature (25° C.) for 4 days. […]

C3H/HeN mice = conditions: more pronounced effect at midnight than midday; cited from earlier work

Question: For `CCCC(=O)NCCc1c2n(c3ccc(OC)cc13)CCCc1ccccc1-2` [K-185, N-butanoyl-2-(5,6,7-trihydro-11-methoxy-benzo[3,4]cyclohept[2,1-a]indol-13-yl) ethanamine], which “higher affinity for MT2 than for MT1” value [1] is on record?
Answer: > 140 fold

Question: What about the “antagonism of the effect of melatonin on zebrafish development” value (zebrafish embryos) of the same compound?
Answer: blocking the effect of melatonin on zebrafish development

Question: With `COc1ccc2[nH]cc(CCNC(C)=O)c2c1` [melatonin, 5-OCH3 N-acetyltryptamine] as the compound, how does the retention score (Zebrafish (D. rerio); 100 μM melatonin, 1 h at CT7, trained CT8, tested 24 h later (subjective day), FIG. 2b) read?
Answer: significantly reduced

Question: And the “long-term memory formation (retention score)” value (Zebrafish (D. rerio); low concentrations of melatonin, 1 h at CT7, tested 24 h after training at CT8)?
Answer: do not significantly block long-term memory formation

Question: What about the retention score (Zebrafish (D. rerio); melatonin concentration over 50 μM, 1 h at CT7, tested 24 h after training at CT8 (subjective day)) of the same compound?
Answer: around 0.1

Question: What does the source list for `CC(=O)NCCc1c(Cc2ccccc2)[nH]c2ccccc12` [luzindole, N-Acetyl-2-benzyltryptamine]?
Answer: retention score (Zebrafish (D. rerio); 0.5 μM luzindole, 1 h at CT15, trained CT16, tested 24 h later (subjective night), FIG. 4b): less than 0.1; retention score (Zebrafish (D. rerio); 1 μM luzindole, 1 h at CT15, trained CT16, tested 24 h later (subjective night), FIG. 4b): 0.25; number of trials to reach learning criteria (Zebrafish (D. rerio); luzindole at increasing concentration, 1 h at CT15, trained CT16 (subjective night), constant darkness, FIG. 4a): No significant difference; also recorded: remains the same; duration of immobility during swimming (C3H/HeN mice): decreases the duration of immobility during swimming
